# Read-outs that look alike come from different tables or passages of the source.
# Legend:
# in vivo = details: rat; for kel / Vd: 28 days
# Experimental: Plasma PK of a scyllo-cyclohexanehexyl compound in rats was assessed after 28 days oral dosing of 15, 50 and 150 mg/kg, administered twice daily. […] Indeed, at this dose level, the Vdss, clearance and elimination rates appeared to be reduced with repeated dosing. […] As for single doses, the scyllo-cyclohexanehexyl was absorbed rapidly, with mean tmax observed between 1.2 and 1.3 hours post-dose. […] Estimates of MRT were consistent.
# [1] = Single oral and intravenous dose pharmacokinetics, dose range-finding study in beagle dogs; type: in vivo, beagle dog; details: for Tmax: po; for Vd: read-out: VdSS
# Experimental: PK of single oral doses of the scyllo-cyclohexanhexyl was also investigated in a preliminary fashion in a dose range-finding study in 5 beagle dogs. […] The Cmax and AUC values increased proportionally with dose, consistent with observations in the larger study. Estimates of t½ ranged from 2 to 5 hours. Neither dose nor route of administration had any clear effect on t½, MRT, Cl/F or Vdss.
# [2] = CSF and plasma levels at end of 14 day repeat dose study in dogs; type: in vivo, dog; details: dog, oral, after 14 days dosing; for concentration at 24 h: CSF, read-out: CSF level at 24 h; for concentration at 12 h: plasma, read-out: Plasma level at 12 h
# Experimental: CSF was also collected from dogs at the end of the 14 day repeat study upon necropsy (approximately 24 hours after the final dose was administered). Levels of the scyllo-cyclohexanehexyl in CSF increased with dose and followed the profile observed in plasma.
# [3] = Brain penetrance: plasma and CSF pharmacokinetics after single oral doses in dogs; type: in vivo, dog; details: dog
# Description: CSF bathes the central nervous system and sits on the inside of the blood brain barrier. Although a centrally-acting drug will still need to penetrate brain tissue to exert an effect, quantification of drug in CSF may provide a gross estimate of brain-penetrance.
# [4] = beagle, dog, plasma, dogs, single intravenous dose 80 mg/kg
# [5] = beagle, dog, plasma, dogs, single intravenous dose 240 mg/kg
# [6] = beagle, dog, plasma, dogs, single oral dose 20 mg/kg
# [7] = beagle, dog, plasma, dogs, single oral dose 80 mg/kg
# [8] = beagle, dog, plasma, dogs, single oral dose 240 mg/kg
# [9] = dogs, single intravenous dose 80 mg/kg
# [10] = dogs, single intravenous dose 240 mg/kg
# [11] = CSF, single oral dose 240 mg/kg
# [12] = PLASMA LEVELS, single oral dose 20 mg/kg
smiles,measurement,setting,value
"OC1C(O)C(O)C(O)C(O)C1O (centres unmarked) [AZD-103, scyllo-inositol]",kel,in vivo; 15 mg/kg,0.16 ± 0.03 h⁻¹
same,kel,in vivo; 50 mg/kg,0.21 ± 0.03 h⁻¹
same,kel,in vivo; 150 mg/kg,0.22 ± 0.02 h⁻¹
same,AUC(0-inf),"in vivo; po, 15 mg/kg",195 ± 71.7 µg·h/mL
same,AUC(0-t),"in vivo; po, 15 mg/kg",161 ± 57.7 µg·h/mL
same,CL/F at 28 days,"in vivo; po, 15 mg/kg",2.9 mL/min/kg
same,Cmax at 28 days,"in vivo; po, 15 mg/kg",28500 ± 4900 ng/mL
same,MRT at 28 days,"in vivo; po, 15 mg/kg",6.7 ± 0.6 h
same,Tmax,"in vivo; po, 15 mg/kg",1.3 ± 0.5 h
same,half-life at 28 days,"in vivo; po, 15 mg/kg",4.4 ± 0.6 h
same,Vd,"in vivo; po, 15 mg/kg",1.14 L/kg
same,AUC(0-inf),"in vivo; po, 50 mg/kg",298 ± 82.2 µg·h/mL
same,AUC(0-t),"in vivo; po, 50 mg/kg",271 ± 70.7 µg·h/mL
same,CL/F at 28 days,"in vivo; po, 50 mg/kg",5.95 mL/min/kg
same,Cmax at 28 days,"in vivo; po, 50 mg/kg",59400 ± 8400 ng/mL
same,MRT at 28 days,"in vivo; po, 50 mg/kg",4.9 ± 0.8 h
same,Tmax,"in vivo; po, 50 mg/kg",1.2 ± 0.4 h
same,half-life at 28 days,"in vivo; po, 50 mg/kg",3.3 ± 0.5 h
same,Vd,"in vivo; po, 50 mg/kg",1.73 L/kg
same,AUC(0-inf),"in vivo; po, 150 mg/kg",615 ± 129 µg·h/mL
same,AUC(0-t),"in vivo; po, 150 mg/kg",573 ± 128 µg·h/mL
same,CL/F at 28 days,"in vivo; po, 150 mg/kg",8.41 mL/min/kg
same,Cmax,"in vivo; po, 150 mg/kg",171000 ± 79900 ng/mL
same,MRT at 28 days,"in vivo; po, 150 mg/kg",4.6 ± 0.8 h
same,Tmax,"in vivo; po, 150 mg/kg",1.2 ± 0.4 h
same,half-life at 28 days,"in vivo; po, 150 mg/kg",3.1 ± 0.3 h
same,Vd,"in vivo; po, 150 mg/kg",2.34 L/kg
same,Tmax,"[1]; beagle, dog, plasma, 20 mg/kg, dogs, single oral dose 20 mg/kg",1.5 ± 0.6 h
same,Tmax,"[1]; beagle, dog, plasma, 80 mg/kg, dogs, single oral dose 80 mg/kg",2 ± 1.2 h
same,Tmax,"[1]; beagle, dog, plasma, 240 mg/kg, beagle dogs, following an oral dose (20, 80 and 240 mg/kg)",1.5 to 2 h
same,Tmax,"[1]; beagle, dog, plasma, 240 mg/kg, dogs, single oral dose 240 mg/kg",2 ± 1.4 h
same,bioavailability,"[1]; beagle, dog, plasma, dogs, 80 mg/kg dose level, oral vs i.v.",> 90%
same,AUC(0-inf),[1]; [4],173 ± 9 µg·h/mL
same,AUC(0-t),[1]; [4],167 ± 7 µg·h/mL
same,MRT,[1]; [4],4.6 ± 1.2 h
same,Vd,[1]; [4],2.1 L/kg
same,half-life,"[1]; beagle, dog, plasma, dogs, single intravenous dose 80 mg/kg, read-out: t1/2 (converted)",3.3 ± 0.3 h
same,AUC(0-inf),[1]; [5],248 ± 25 µg·h/mL
same,AUC(0-t),[1]; [5],244 ± 24 µg·h/mL
same,MRT,[1]; [5],3.3 ± 0.5 h
same,Vd,[1]; [5],3.22 L/kg
same,half-life,"[1]; beagle, dog, plasma, dogs, single intravenous dose 240 mg/kg, read-out: t1/2 (converted)",2.3 ± 0.2 h
same,AUC(0-inf),[1]; [6],51.7 ± 15.7 µg·h/mL
same,AUC(0-t),[1]; [6],42.1 ± 8.4 µg·h/mL
same,CL/F,[1]; [6],6.97 mL/min/kg
same,Cmax,[1]; [6],5900 ± 3100 ng/mL
same,MRT,[1]; [6],10.1 ± 5.9 h
same,half-life,"[1]; beagle, dog, plasma, dogs, single oral dose 20 mg/kg, read-out: t1/2 (converted)",5 ± 3.9 h
same,AUC(0-inf),[1]; [7],246 ± 53 µg·h/mL
same,AUC(0-t),[1]; [7],243 ± 54 µg·h/mL
same,CL/F,[1]; [7],5.63 mL/min/kg
same,Cmax,[1]; [7],69000 ± 23500 ng/mL
same,MRT,[1]; [7],4.1 ± 0.8 h
same,half-life,"[1]; beagle, dog, plasma, dogs, single oral dose 80 mg/kg, read-out: t1/2 (converted)",2 ± 0.3 h
same,AUC(0-inf),[1]; [8],489 ± 99 µg·h/mL
same,AUC(0-t),[1]; [8],477 ± 94 µg·h/mL
same,CL/F,[1]; [8],8.45 mL/min/kg
same,Cmax,[1]; [8],89500 ± 27800 ng/mL
same,MRT,[1]; [8],5.2 ± 0.2 h
same,half-life,"[1]; beagle, dog, plasma, dogs, single oral dose 240 mg/kg, read-out: t1/2 (converted)",2 ± 0.4 h
same,half-life,"[1]; dog, plasma, other: oral and intravenous (range over both routes), beagle dogs, 20, 80 and 240 mg/kg p.o., 80 and 240 mg/kg i.v., read-out: t½",2 to 5 h
same,Cp0,[1]; [9],87.2 ± 13.2 µg/mL
same,kel,[1]; [9],0.21 ± 0.02 h⁻¹
same,Cp0,[1]; [10],127.9 ± 19.1 µg/mL
same,kel,[1]; [10],0.30 ± 0.02 h⁻¹
same,kel,"[1]; dogs, single oral dose 20 mg/kg",0.2 ± 0.2 h⁻¹
same,kel,"[1]; dogs, single oral dose 80 mg/kg",0.4 ± 0.1 h⁻¹
same,kel,"[1]; dogs, single oral dose 240 mg/kg",0.4 ± 0.1 h⁻¹
same,concentration at 24 h,[2]; Dose 30 mg/kg,4000 ng/mL
same,concentration at 24 h,[2]; Dose 100 mg/kg,7500 ng/mL
same,concentration at 24 h,[2]; Dose 300 mg/kg,10900 ng/mL
same,concentration at 12 h,[2]; Dose 30 mg/kg,3600 ng/mL
same,concentration at 12 h,[2]; Dose 100 mg/kg,5800 ng/mL
same,concentration at 12 h,[2]; Dose 300 mg/kg,8200 ng/mL
same,AUC(0-inf),"[3]; CSF, single oral dose 20 mg/kg",38 ± 22.8 µg·h/mL
same,AUC(0-t),"[3]; CSF, single oral dose 20 mg/kg",20.6 ± 6.6 µg·h/mL
same,Cmax,"[3]; CSF, single oral dose 20 mg/kg",2300 ± 1400 ng/mL
same,Tmax,"[3]; CSF, single oral dose 20 mg/kg",4 ± 1.7 h
same,AUC(0-inf),"[3]; CSF, single oral dose 80 mg/kg",103 ± 13.1 µg·h/mL
same,AUC(0-t),"[3]; CSF, single oral dose 80 mg/kg",98 ± 13.2 µg·h/mL
same,Cmax,"[3]; CSF, single oral dose 80 mg/kg",18700 ± 1000 ng/mL
same,Tmax,"[3]; CSF, single oral dose 80 mg/kg",2.8 ± 1.5 h
same,AUC(0-inf),[3]; [11],401 ± 204 µg·h/mL
same,AUC(0-t),[3]; [11],384 ± 204 µg·h/mL
same,Cmax,[3]; [11],67400 ± 28600 ng/mL
same,Tmax,[3]; [11],3 ± 1.7 h
same,AUC(0-inf),[3]; [12],52.7 ± 17.9 µg·h/mL
same,AUC(0-t),[3]; [12],42.6 ± 9.6 µg·h/mL
same,Cmax,[3]; [12],6100 ± 3600 ng/mL
